For one assay, the target named is T1, 5-lipoxygenase (Rattus norvegicus, UniProt P12527).
T1 construct: host or cells: RBL-1 (rat basophilic leukemia)
T1 sequence (P12527 1-673): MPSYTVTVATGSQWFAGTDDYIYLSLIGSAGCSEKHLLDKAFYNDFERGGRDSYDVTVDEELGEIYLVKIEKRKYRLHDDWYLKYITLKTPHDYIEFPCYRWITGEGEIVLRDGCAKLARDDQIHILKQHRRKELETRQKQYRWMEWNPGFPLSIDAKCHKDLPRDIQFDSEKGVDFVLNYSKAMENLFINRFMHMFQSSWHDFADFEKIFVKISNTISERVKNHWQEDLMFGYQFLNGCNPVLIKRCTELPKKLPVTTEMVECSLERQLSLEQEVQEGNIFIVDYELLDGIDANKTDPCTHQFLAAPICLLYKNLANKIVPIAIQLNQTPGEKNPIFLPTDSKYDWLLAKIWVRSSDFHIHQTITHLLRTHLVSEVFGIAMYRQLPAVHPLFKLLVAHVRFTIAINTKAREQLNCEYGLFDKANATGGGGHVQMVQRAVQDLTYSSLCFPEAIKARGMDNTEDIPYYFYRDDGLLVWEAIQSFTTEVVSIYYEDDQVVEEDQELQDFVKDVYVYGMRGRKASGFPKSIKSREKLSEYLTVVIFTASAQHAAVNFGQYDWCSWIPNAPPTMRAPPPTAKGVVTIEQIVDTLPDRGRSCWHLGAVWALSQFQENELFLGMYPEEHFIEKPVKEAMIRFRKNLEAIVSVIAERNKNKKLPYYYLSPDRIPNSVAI
Nature of the assay: ARBL whole cell 5-lipoxygenase assay (inhibition of LTB4 formation in RBL-1 cells). The class given is cell-based. As to conditions: for IC50: A23187 stimulated, read-out: ARBL: IC50 (50% inhibition of LTB4 formation). As for the experimental part: (§1) The rat basophilic leukemia cell line (RBL-1) was obtained from the American Type Culture Collection (Rockville, Md.).
(§2) Radioimmunoassay (RIA) kits of LTB4 and PGF2α were obtained from Amersham (Arlington Heights, Ill.) and Seragen (Boston, Mass.), respectively.
(§3) All tissue culture media were obtained from GIBCO (Grand Island, N.Y.).
(§4) RBL-1 cells are grown in suspension culture in Eagles minimum essential medium supplemental with 12% fetal bovine serum at 37° C. in an incubator supplied with air--5% carbon dioxide. Cells are harvested by centrifugation. They are washed with cold phosphate-buffered saline, pH 7.4 (PBS; NaCl, 7.1 g; Na2 HPO4, 1.15 g; KH2 PO4, 0.2 g; and KCl, 0.2 g/L). Cells are incubated with and without test agent (in DMSO) (1% DMSO is without effect on arachidonic acid metabolism) for 10 minutes at room temperature. Calcium ionophore A23187 (5 μM) is added and cells are incubated for 7 minutes at 37° C. The reaction is stopped by chilling the tubes on ice for 10 minutes. Cells are finally suspended in PBS containing 1.0 mM calcium at a density of 2×10^6 cells/mL. Cells are separated by centrifugation and the supernatant is stored at -20° C. Aliquots (100 μL) are analyzed for LTB4 and PGF2α using radioimmunoassay kits as provided by the supplier.
(§5) Table 1 contains biochemical data for compounds of formula I obtained from this whole cell assay as IC50 s which are calculated as the concentration of a test compound in micromoles (μM) causing 50% inhibition of LTB4 or PGF2α formation.

In the next assay the target is T2, cyclooxygenase (Rattus norvegicus, UniProt Q63921).
T2 construct: host or cells: RBL-1 (rat basophilic leukemia)
T2 sequence (Q63921 27-602): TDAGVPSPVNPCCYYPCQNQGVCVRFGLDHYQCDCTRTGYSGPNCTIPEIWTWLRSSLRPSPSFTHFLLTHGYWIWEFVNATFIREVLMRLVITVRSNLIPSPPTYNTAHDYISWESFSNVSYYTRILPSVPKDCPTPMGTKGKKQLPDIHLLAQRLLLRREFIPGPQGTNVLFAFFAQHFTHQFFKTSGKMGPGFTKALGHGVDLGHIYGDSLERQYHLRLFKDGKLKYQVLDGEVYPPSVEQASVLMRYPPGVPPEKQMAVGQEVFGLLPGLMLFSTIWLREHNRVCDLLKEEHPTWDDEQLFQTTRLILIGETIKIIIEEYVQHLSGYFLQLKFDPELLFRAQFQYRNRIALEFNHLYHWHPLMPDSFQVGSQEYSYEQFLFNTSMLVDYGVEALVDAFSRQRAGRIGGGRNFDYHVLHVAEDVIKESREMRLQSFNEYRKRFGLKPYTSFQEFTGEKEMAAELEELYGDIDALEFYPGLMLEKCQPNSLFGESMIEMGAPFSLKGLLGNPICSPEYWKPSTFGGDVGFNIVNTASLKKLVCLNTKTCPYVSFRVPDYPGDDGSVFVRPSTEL
Nature of the assay: ARBC whole cell cyclooxygenase assay (inhibition of PGF2α formation in RBL-1 cells). As to conditions: for IC50: A23187 stimulated, Table 2 (formula II), read-out: ARBC: IC50 (50% inhibition of PGF2α formation). In kind it is cell-based. The method, then:
as §1, §2, §3, §4, §5

Setting [1] is: read-out: ARBL: % inhibition of LTB4 at 10 μM, 10 μM, A23187 stimulated, Table 2 (formula II).
The mark [2] stands for this setting: read-out: ARBC: % inhibition of PGF2α at 10 μM, 10 μM, A23187 stimulated, Table 2 (formula II).
[3] abbreviates: read-out: ARBL: % inhibition of LTB4 at 10 μM, 10 μM, A23187 stimulated, Table 1 (formula I).
Where [4] appears, read: read-out: ARBC: % inhibition of PGF2α at 10 μM, 10 μM, A23187 stimulated, Table 1 (formula I).

Like-named read-outs stand apart in the source and are kept apart here.

Among the data in patent US5143929A, “2-substituted thiazolidinone, oxazolidinone, and imidazolidinone derivatives of fenamates as antiinflammatory agents” (Warner-Lambert Company, priority 1991, dated 1992) are inhibition and IC50 values, retold here.

Broadly, the inhibition is the share of the control response that was lost under treatment. On to `CSC1=NC(=O)/C(=C/c2ccccc2Nc2c(Cl)ccc(C)c2Cl)S1` [Example 6, (Z)-5-[[2-[(2,6-Dichloro-3-methylphenyl)amino]phenyl]methylene]-2-(methylthio)-4(5H)-thiazolone], for which the figures for the inhibition at 10 µM on 5-lipoxygenase (setting [1]) and on cyclooxygenase (setting [2]) were 100% and less than 40%, respectively.

As a reminder, the IC50 is the concentration that inhibits the measured activity by half. For the compound `Cc1ccc(Cl)c(Nc2ccccc2/C=C2\SC(=S)NC2=O)c1Cl` [Example 1, (Z)-5-[[2-[(2,6-Dichloro-3-methylphenyl)amino]phenyl]methylene]-2-thioxo-4-thiazolidinone], the 50% inhibitory concentration (IC50) on 5-lipoxygenase (Table 2 (formula II)) was 820 nM; on cyclooxygenase, 5960 nM.

With `CN1C(=O)/C(=C/c2ccccc2Nc2cccc(C(F)(F)F)c2)SC1=S` [Example 4], the inhibition at 10 µM on 5-lipoxygenase (setting [3]) and at cyclooxygenase (setting [4]) was less than 40% in each case.

On to `Cc1ccc(Cl)c(Nc2ccccc2/C=C2\SC(NC#N)=NC2=O)c1Cl` [Example 8], for which the results for the IC50 at 5-lipoxygenase (Table 2 (formula II)) and on cyclooxygenase were 1480 nM and 10200 nM, respectively.

Regarding `O=C1NC(=S)S/C1=C\c1ccccc1Nc1cccc(C(F)(F)F)c1` [Example 2, (Z)-2-Thioxo-5-[[2-[[3-(trifluoromethyl)phenyl]amino]phenyl]methylene]-4-thiazolidinone], the inhibition at 10 µM on 5-lipoxygenase (setting [1]) and on cyclooxygenase (setting [2]) was less than 40% in each case.

Turning to `Cc1ccc(Cl)c(Nc2ccccc2/C=C2\SC(=S)N(C)C2=O)c1Cl` [Example 3, (Z)-5-[[2-[(2,6-Dichloro-3-methylphenyl)amino]phenyl]methylene]-3-methyl-2-thioxo-4-thiazolidinone], the inhibition at 10 µM on 5-lipoxygenase (setting [3]) was 100%; on cyclooxygenase (setting [4]), less than 40%.

Regarding `Cc1ccc(Cl)c(Nc2ccccc2/C=C2\SC(=S)N(CC(=O)O)C2=O)c1Cl` [Example 10, (Z)-5-[[2-[[2-Dichloro-3-methylphenyl)-amino]phenyl]methylene]-4-oxo-2-thioxo-3-thiazolidine acetic acid], the IC50 on 5-lipoxygenase (Table 1 (formula I)) amounted to 2180 nM. Moreover, the inhibition at 10 µM on cyclooxygenase (setting [4]) was less than 40%.

On to `CC(C)(C)c1cc(Nc2ccccc2/C=C2\SC(=S)NC2=O)cc(C(C)(C)C)c1O` [Example 12], for which the IC50 on 5-lipoxygenase (Table 2 (formula II)) was 1470 nM; on cyclooxygenase, 2250 nM.

`O=C1NC(=O)/C(=C/c2ccccc2Nc2cccc(C(F)(F)F)c2)S1` [Example 9, (Z)-5-[[2-[[3-(Trifluoromethyl)phenyl]amino]phenyl]methylene]-2,4-thiazolidinedione]: the inhibition at 10 µM on 5-lipoxygenase (setting [1]) and at cyclooxygenase (setting [2]) was less than 40% each time.

As for `Cc1ccc(Cl)c(Nc2ccccc2/C=C2\SC(=O)NC2=O)c1Cl` [Example 7, (Z)-5-[[2-[(2,6-Dichloro-3-methylphenyl)amino]phenyl]methylene]-2,4-thiazolidinedinone], the inhibition at 10 µM at 5-lipoxygenase (setting [1]) is 55%; on cyclooxygenase (setting [2]), less than 40%.

Take `Cc1ccc(Cl)c(Nc2ccccc2/C=C2\SC(=N)NC2=O)c1Cl` [Example 5, (Z)-5-[[2-[(2,6-Dichloro-3-methylphenyl)amino]phenyl]methylene]-2-imino-4-thiazolidinone]: the inhibition at 10 µM on 5-lipoxygenase (setting [1]) and at cyclooxygenase (setting [2]) was less than 40% throughout.
